The structures appear in SMILES notation.

The values that follow come from a melting point compilation (Tetko et al.).

As usually defined, the melting point is the temperature, or range, at which the solid turns liquid. `Cc1cc(S(N)(=O)=O)ccc1[N+](=O)[O-]` showed a melting point of 131 to 133 °C.

On to `Cn1nc(Br)c2c(NN)ncnc21`, for which the melting point was 198 to 200 °C.

For the compound `Cc1ccc(S(=O)(=O)OI(O)c2ccccc2)cc1`, the melting point was in the range of 134 to 136 °C.

Consider `Cc1cc(N)nc(S)n1`, for which the melting point is 295 to 297 °C.

In turn, `Cc1ccccc1NC(=O)C(C)Cl` (configuration not stated) returned a melting point of 112 to 114 °C.

For `O=C(O)c1cccc(S(=O)(=O)F)c1`, the melting point was 152 to 154 °C.

`O=S(=O)(F)c1ccc2[nH]ncc2c1`: the melting point fell in the range of 175 to 177 °C.

`O=C(O)c1cc2c(F)ccc(F)c2[nH]1` showed a melting point of 229 to 231 °C.

In turn, `O=C(NCC(F)(F)F)OCC(F)(F)F` registered a melting point of 53 to 55 °C.

Compound `CC(C)C(=O)N1CCC(C(=O)O)CC1` displayed a melting point of 102 to 104 °C.

For the compound `Cc1cc(F)ccc1NC(=O)C=NO`, the melting point fell in the range of 132 to 134 °C.

In the case of `COc1ccc2nc(C)cc(O)c2c1`, the melting point is 284 to 286 °C.

Regarding `CC(C)(c1ccccc1)c1nnc(N)o1`, the melting point fell in the range of 196 to 198 °C.

On to `COc1cc(C)ccc1Oc1ccc(F)cc1N`, for which the melting point is 60 to 62 °C.

`CC(N)c1ccc(OCc2ccc(F)cc2)cc1` (configuration not stated) yielded a melting point of 52 to 54 °C.

Compound `O=C1COc2cc(Br)ccc2N1` returned a melting point of 192 to 194 °C.

The compound `Nc1ncc(C=NO)s1` gave a melting point of 211 to 213 °C.

Compound `C#CCOc1ncccc1C(=O)O` came in with a melting point of 120 to 122 °C.

`COC(=O)c1cc2cccc(Br)c2o1` registered a melting point of 76 to 78 °C.

`NCc1ccccc1CN1CCC(O)CC1` showed a melting point of 83 to 85 °C.

Compound `Cc1cscc1C(=O)O` gave a melting point of 135 to 137 °C.

Regarding `CC(NC(=O)c1ccc(Cl)cc1)C(=O)O` (configuration not stated), the melting point was in the range of 158 to 160 °C.

Consider `Cn1ccnc(N)c1=O`, for which the melting point lay within 162 to 164 °C.

For `CC1Oc2c(C(=O)O)cccc2C1C` (configuration not stated), the melting point is 96 to 100 °C.

Consider `Cc1nn(-c2ccc(Br)cc2)c(C)c1C(=O)O`, for which the melting point was in the range of 231 to 233 °C.

`N#Cc1cc(C(N)=O)c[nH]1` returned a melting point of 245 to 247 °C.

The compound `N#Cc1cccc(OC2CCNCC2)c1` registered a melting point of 52 to 54 °C.

With `Cc1[nH]c(C(=O)O)c(C)c1C(=O)OC(C)C`, the melting point was 183 to 185 °C.

Compound `COc1ccc(C(=O)O)cc1S(=O)(=O)N1CCCCC1C` (configuration not stated) showed a melting point of 175 to 180 °C.

On to `CC1(C)CCc2sc(C(=O)O)cc2C1`, for which the melting point lay within 138 to 140 °C.

For `O=[N+]([O-])c1ccc(COc2ccccc2)cc1`, the melting point fell in the range of 87 to 89 °C.

Compound `Cc1nc2ccc(Br)cc2c(Cl)c1C` showed a melting point of 99 to 101 °C.

`CC(N)c1ccc(-n2cccn2)cc1` (configuration not stated) returned a melting point of 48 to 50 °C.

The compound `Oc1ccc(-n2cnc3ccccc32)cc1` registered a melting point of 278 to 280 °C.

On to `Cc1cc(N)n(Cc2ccccn2)n1`, for which the melting point lay within 94 to 96 °C.

`O=C(O)COc1cccc2cccnc12` displayed a melting point of 125 to 127 °C.

Turning to `O=S(=O)(Cl)c1cc(Cl)cc2c1OCC2`, the melting point fell in the range of 105 to 107 °C.

For `N#Cc1cnn(-c2ncccn2)c1N`, the melting point is 320 to 322 °C.

`Cc1cccc(Nc2nnc(S)s2)c1` showed a melting point of 196 to 198 °C.

`CCCC(CN)C(=O)O` (configuration not stated) had a melting point of 219 to 221 °C.

Take `O=C(O)c1cc(F)cc2nccnc12`: the melting point is 219 to 221 °C.

Compound `CC(C)(C)OC(=O)NCC1CCCCC1O` (configuration not stated) returned a melting point of 57 to 59 °C.

As to `COc1ccc(C(N)=O)c(O)c1`, the melting point fell in the range of 145 to 147 °C.

As for `Cc1nnc2cc(Cl)ncn12`, the melting point was 122 to 124 °C.

Compound `CCOC(=O)c1cnn(-c2nccs2)c1N` registered a melting point of 104 to 106 °C.

For `O=C(O)C=Cc1ccc(Br)o1`, the melting point fell in the range of 125 to 135 °C.

As for `O=C1NCCCC1Br` (configuration not stated), the melting point fell in the range of 49 to 51 °C.

The compound `O=C(O)C1CC(=O)N(c2cccc(C(F)(F)F)c2)C1` (configuration not stated) yielded a melting point of 102 to 104 °C.

Turning to `COc1cc2nc(-c3ccccc3)nc(Cl)c2cc1OC`, the melting point was 132 to 134 °C.

In turn, `CON(C)S(=O)(=O)c1ccc(Cl)c(C(=O)O)c1` yielded a melting point of 184 to 186 °C.

`NS(=O)(=O)c1nc2ccccc2s1` returned a melting point of 177 to 179 °C.

Compound `Nc1nc(S)nc2sccc12` had a melting point of 275 to 277 °C.

`O=C(O)c1sc(-c2ccccc2)nc1C(F)F` had a melting point of 179 to 181 °C.

`O=C(O)C(F)=C1CCCC1` had a melting point of 83 to 85 °C.

Turning to `O=C(O)CCCCOc1ccc2oc3ccccc3c2c1`, the melting point was 114 to 116 °C.

`O=C(O)c1cnc2cc3c(cc2c1O)OCCO3` gave a melting point of 274 to 276 °C.

For the compound `O=C(O)C1CCCc2ccccc21` (configuration not stated), the melting point is 84 to 86 °C.

In the case of `Cc1c(O)cccc1OCCN1CCOCC1`, the melting point lay within 117 to 119 °C.

Compound `CC(C)Cc1nc(C#N)c(NN)o1` had a melting point of 102 to 104 °C.

For the compound `COC(=O)CN1Cc2ccccc2C1=O`, the melting point fell in the range of 114 to 116 °C.

`CC(C)(C)OC(=O)NC(C(=O)O)c1ccccc1` (configuration not stated): the melting point was in the range of 113 to 115 °C.

With `O=C(O)c1ccc(CSc2ccccc2)cc1`, the melting point is 179 to 181 °C.

`NC(=O)CCNc1cc(Cl)ncn1`: the melting point lay in the range of 165 to 167 °C.

On to `CC(C)(C)OC(=O)NCCC(=O)NN`, for which the melting point is 104 to 106 °C.

Regarding `COc1ccc(N)cc1S(=O)(=O)N1CCCCC1`, the melting point lay in the range of 93 to 95 °C.

Take `Nc1nc2cc(Cc3ccccc3)ccc2o1`: the melting point is 151 to 153 °C.

With `CCc1ccccc1N1CC(C(=O)O)CC1=O` (configuration not stated), the melting point was 99 to 101 °C.

The compound `O=C(NC1CCCCC1)OCC(F)(F)F` came in with a melting point of 78 to 82 °C.

For `CC(C)(C)OC(=O)Nc1ccc(C(F)(F)F)cc1N`, the melting point was 140 to 142 °C.

In turn, `CC(=O)N(Cc1ccc(N)cc1)C(C)C` returned a melting point of 110 to 112 °C.

For `O=C(O)C(Oc1ccc(Br)cc1F)c1ccccc1` (configuration not stated), the melting point was in the range of 104 to 106 °C.

`CC1(C(=O)O)CCOCC1` yielded a melting point of 62 to 64 °C.

The compound `CC1(c2c(F)cccc2F)NC(=O)NC1=O` (configuration not stated) had a melting point of 215 to 217 °C.

Compound `CN(C)S(=O)(=O)c1c(Cl)nc2ccccn12` displayed a melting point of 109 to 111 °C.

Regarding `CC1(C)CCC(C)(C)c2cc(C(=O)O)ccc21`, the melting point lay within 199 to 201 °C.

`O=C(O)c1ccc([N+](=O)[O-])c2cccnc12` returned a melting point of 204 to 206 °C.

For `Cc1ccc(Cl)c(C(=O)O)c1N`, the melting point is 152 to 154 °C.

`CCN(c1ccccc1)S(=O)(=O)c1ccc(Cl)c(C(=O)O)c1`: the melting point lay in the range of 128 to 130 °C.

The compound `Cc1cc(C(=O)CCl)c(C)n1C(C)C` had a melting point of 45 to 47 °C.

On to `COc1ccccc1C(NC(=O)OC(C)(C)C)C(=O)O` (configuration not stated), for which the melting point was 146 to 148 °C.

On to `O=C(O)C=Cc1ccc(OCc2ccccc2)cc1`, for which the melting point was 141 to 143 °C.

In turn, `Cc1ccc(N)c(C(=O)N(C)C)c1` returned a melting point of 98 to 100 °C.

The compound `NCc1csc(CNC(=O)c2ccccc2)n1` yielded a melting point of 84 to 86 °C.

`Nc1sc2c(c1-c1nc3ccccc3s1)CCCC2` displayed a melting point of 100 to 104 °C.

The compound `Nc1ccc(-c2csnn2)cc1` showed a melting point of 125 to 127 °C.

Compound `O=C(CCl)Nc1cccc(S(=O)(=O)N=C2CCCN2)c1` displayed a melting point of 156 to 160 °C.

Regarding `Cc1cc(N)n(-c2ncccn2)n1`, the melting point lay within 203 to 205 °C.
